Results as given in patent US4167568A, “8-Azapurin-6-one derivatives” (May & Baker Limited, priority 1976, dated 1979).

Tests used:
[1] = Acute intravenous toxicity in mice; details: mouse, in vivo, triethanolamine salt, aqueous solution, observed 7 days
Method: T.2. Acute intravenous toxicity in mice
Mice were each treated intravenously with an aqueous solution of the triethanolamine salt of one of the compounds of formula IV, and they were observed during the next 7 days. The LD50 figures obtained (doses lethal to 50% of mice tested) are shown below in Table III, expressed in mg/kg animal body weight.
The aqueous solutions used were prepared as follows:- A mixture of the test compound and water was treated gradually with triethanolamine until complete solution occurred. The solution was then diluted with water to a concentration of either 1% w/v or 2% w/v. Various volumes of these solutions were then administered to the mice.

[2] = system: passive cutaneous anaphylactic reaction; test: Passive cutaneous anaphylactic reaction test in rats (intravenous); type: in vivo; details: relative to reference compound RCA (= 1)
From the text: A.1. Passive cutaneous anaphylactic reaction test in rats (intravenous)

[3] = system: passive cutaneous anaphylactic reaction; test: Passive cutaneous anaphylactic reaction test in rats (oral); type: in vivo; details: for oral activity relative to reference compounds RCB and RCC: times as active as RCB and RCC
From the text: A.2. Passive cutaneous anaphylactic reaction test in rats (oral)

[4] = system: beagle dogs; test: Emetic activity in dogs; type: in vivo; details: four beagle dogs, oral gelatine capsules, observed at least 2.5 hours
From the text: The emetic activity in dogs of test compound A was compared with that of the reference compound RCA.
Four beagle dogs, each of approximately 12 kg body weight, were starved overnight and then were given orally gelatine capsules containing either test compound A or RCA.
The same four animals were used to test both compounds.

[5] = Acute oral toxicity in mice; details: mouse, in vivo, observed 3 days
From the text: T.1. Acute oral toxicity in mice
Mice were each treated orally with one of the compounds of formula IV, and they were observed during the next 3 days. The LD50 figures obtained (doses lethal to 50% of mice tested) are shown in Table II, expressed in mg/kg animal body weight.

Compound	Relative Activity [2]	other results
CCCOc1ccc(NC=C(C#N)C(=O)OCC)cc1-c1nc2[nH]nnc2c(=O)[nH]1 [C, 2-[5-(2-cyano-2-ethoxycarbonylvinylamino)-2-propoxyphenyl]-8-azapurin-6-one]	10	LD50 at 168 h ([1]; test solution 2% w/v): 290 mg/kg; oral activity relative to reference compounds RCB and RCC [3]: over 2.5 times
CCCOc1ccc(NC=C(C(=O)OCC)C(=O)OCC)cc1-c1nc2[nH]nnc2c(=O)[nH]1 [Compound A, 2-[5-{2,2-bis(ethoxycarbonyl)vinylamino}-2-propoxyphenyl]-8-azapurin-6-one]	5	vomiting (emetic activity) ([4]; 200 mg/kg): caused vomiting in none of the four dogs; oral activity relative to reference compounds RCB and RCC [3]: over 5 times
CCCOc1ccc(NC=C(C(C)=O)C(C)=O)cc1-c1nc2[nH]nnc2c(=O)[nH]1 [Compound B, 2-[5-(2,2-diacetylvinylamino)-2-propoxyphenyl]-8-azapurin-6-one]	50	LD50 at 168 h ([1]; test solution 1% w/v): 350 mg/kg
CCOC(=O)C(=CNc1ccc(OC)c(-c2nc3[nH]nnc3c(=O)[nH]2)c1)C(=O)OCC [Compound E, 2-[5-{2,2-bis(ethoxycarbonyl)vinylamino}-2-methoxyphenyl]-8-azapurin-6-one]	5	LD50 at 168 h ([1]; test solution 1% w/v): 320 mg/kg; LD50 at 72 h [5]: > 1000 mg/kg
CCCOc1ccc(NC=C(C(=O)OC)C(=O)OC)cc1-c1nc2[nH]nnc2c(=O)[nH]1 [Compound G, 2-[5-{2,2-bis(methoxycarbonyl)vinylamino}-2-propoxyphenyl]-8-azapurin-6-one]	50	LD50 at 168 h ([1]; test solution 2% w/v): 280 mg/kg
CCCOc1ccc(N/C(=C\C(=O)OC)C(=O)OC)cc1-c1nc2[nH]nnc2c(=O)[nH]1 [Compound H, (Z)-2-[5-{1,2-bis(methoxycarbonyl)vinylamino}-2-propoxyphenyl]-8-azapurin-6-one]	15	LD50 at 168 h ([1]; test solution 2% w/v): 410 mg/kg
COc1ccc(NC(C)=CC(C)=O)cc1-c1nc2[nH]nnc2c(=O)[nH]1 [Compound I, 2-[5-(1-acetylprop-1-en-2-ylamino)-2-methoxyphenyl]-8-azapurin-6-one]	5	LD50 at 168 h ([1]; test solution 1% w/v): 470 mg/kg
CCCOc1ccc(C#N)cc1-c1nc2[nH]nnc2c(=O)[nH]1 [Compound L, 2-(5-cyano-2-propoxyphenyl)-8-azapurin-6-one]	1	–
CCCOc1ccc(C(N)=O)cc1-c1nc2[nH]nnc2c(=O)[nH]1 [Compound M, 2-(5-carbamoyl-2-propoxyphenyl)-8-azapurin-6-one]	10	–
CCCOc1ccc(C(=O)NC(C)(C)C)cc1-c1nc2[nH]nnc2c(=O)[nH]1 [Compound N, 2-(5-N-t-butylcarbamoyl-2-propoxyphenyl)-8-azapurin-6-one]	50	LD50 at 72 h [5]: > 1000 mg/kg
CCCOc1ccc(NC(=O)NC(C)C)cc1-c1nc2[nH]nnc2c(=O)[nH]1 [Compound O, 2-[2-propoxy-5-(3-isopropylureido)phenyl]-8-azapurin-6-one]	30	LD50 at 72 h [5]: > 1000 mg/kg
CCCNC(=O)Nc1ccc(OCCC)c(-c2nc3[nH]nnc3c(=O)[nH]2)c1 [Compound P, 2-[2-propoxy-5-(3-propylureido)phenyl]-8-azapurin-6-one]	2	–
CCCOc1ccc(NC(=S)NC)cc1-c1nc2[nH]nnc2c(=O)[nH]1 [Compound Q, 2-[5-(3-methyl-2-thioureido)-2-propoxyphenyl]-8-azapurin-6-one]	10	–
CCCNC(=S)Nc1ccc(OCCC)c(-c2nc3[nH]nnc3c(=O)[nH]2)c1 [Compound R, 2-[2-propoxy-5-(3-propyl-2-thioureido)phenyl]-8-azapurin-6-one]	0.2	LD50 at 72 h [5]: > 1000 mg/kg
CCCOc1ccc(NC(N)=O)cc1-c1nc2[nH]nnc2c(=O)[nH]1 [Compound S, 2-(2-propoxy-5-ureidophenyl)-8-azapurin-6-one]	5	–
CCCOc1ccc(-c2nnn[nH]2)cc1-c1nc2[nH]nnc2c(=O)[nH]1 [Compound T, 2-[2-propoxy-5-(tetrazol-5-yl)phenyl]-8-azapurin-6-one]	2	–
CCCOc1ccc(NC2=C(C(=O)OCC)CCC2)cc1-c1nc2[nH]nnc2c(=O)[nH]1 [Compound U, 2-[5-(2-ethoxycarbonylcyclopent-1-enylamino)-2-propoxyphenyl]-8-azapurin-6-one]	5	LD50 at 168 h ([1]; test solution 2% w/v): 220 mg/kg
CCCOc1ccc(C(=O)N(CC)CC)cc1-c1nc2[nH]nnc2c(=O)[nH]1 [Compound V, 2-(5-N,N-diethylcarbamoyl-2-propoxyphenyl)-8-azapurin-6-one]	3	–
CCCOc1ccc(NC=C(C(C)=O)C(=O)OCC)cc1-c1nc2[nH]nnc2c(=O)[nH]1 [D, 2-[5-(2-acetyl-2-ethoxycarbonylvinylamino)-2-propoxyphenyl]-8-azapurin-6-one]	10	LD50 at 168 h ([1]; test solution 2% w/v): 270 mg/kg
COc1ccc(NC=C(C(C)=O)C(C)=O)cc1-c1nc2[nH]nnc2c(=O)[nH]1 [F, 2-[5-(2,2-diacetylvinylamino)-2-methoxyphenyl]-8-azapurin-6-one]	5	–
CCCOc1ccc(N=NC(C(C)=O)C(C)=O)cc1-c1nc2[nH]nnc2c(=O)[nH]1 [J, 2-[5-(2,4-dioxopent-3-ylazo)-2-propoxyphenyl]-8-azapurin-6-one]	10	LD50 at 72 h [5]: > 1000 mg/kg
CCCOc1ccc(N=NC(C(=O)OCC)C(=O)OCC)cc1-c1nc2[nH]nnc2c(=O)[nH]1 [K, 2-[5-{bis(ethoxycarbonyl)methylazo}-2-propoxyphenyl]-8-azapurin-6-one]	2.5	LD50 at 168 h ([1]; test solution 2% w/v): 255 mg/kg
CCCOc1ccccc1-c1nc2nn[nH]c2c(=O)[nH]1 [RCA, 2-(2-propoxyphenyl)-8-azapurin-6-one, reference compound]	1	vomiting (emetic activity) ([4]; 100 mg/kg): caused vomiting in all four dogs
CCCOc1ccc(S(=O)(=O)N(C)C(C)C)cc1-c1nc2[nH]nnc2c(=O)[nH]1 [RCB, 2-[2-propoxy-5-(N-methyl-N-isopropylsulphamoyl)-phenyl]-8-azapurin-6-one, reference compound]	–	oral activity of RCB and RCC compared with each other [3]: approximately equiactive orally
CCCOc1ccc(S(=O)(=O)CCC)cc1-c1nc2[nH]nnc2c(=O)[nH]1 [RCC, 2-(2-propoxy-5-propylsulphonylphenyl)-8-azapurin-6-one, reference compound]	–	oral activity of RCB and RCC compared with each other [3]: approximately equiactive orally
CCCOc1ccc(C(=O)N(C)C(C)C)cc1-c1nc2[nH]nnc2c(=O)[nH]1 [W, 2-(5-N-methyl-N-isopropylcarbamoyl-2-propoxyphenyl)-8-azapurin-6-one]	5	–
